Earlier results, collected in patent US20120034276A1, “SOLID PREPARATION” (ASKA Pharmaceutical Co., Ltd., priority 2009, published 2012).
Residues, ends and D or L forms follow the SMILES beside them.

Conditions: numeral in parenthesis, for reference; first or second dissociation step

acid dissociation constant pKa	Compound
3.26	NCC(=O)NC(Cc1c[nH]cn1)C(=O)NCC(=O)O (racemic) [glycyl-DL-histidylglycine]
3.20	C[C@H](N)C(=O)N[C@@H](C)C(=O)O [L-alanyl-L-alanine] (H-Ala-Ala-OH)
3.10	C[C@H](N)C(=O)NCC(=O)O [L-alanylglycine] (H-Ala-Gly-OH)
3.18	C[C@H](N)C(=O)NCC(=O)NCC(=O)NCC(=O)O [L-alanylglycylglycylglycine] (H-AGGG-OH)
2.84	N[C@@H](Cc1c[nH]cn1)C(=O)NCC(=O)O [L-histidylglycine] (H-His-Gly-OH)
1.93	N[C@@H](CC(=O)O)C(=O)O [aspartic acid]
2.43	NC(=O)NCCC[C@H](N)C(=O)O [citrulline]
2.18	N[C@@H](CCC(=O)O)C(=O)O [glutamic acid]
2.54	NCC(=O)N[C@@H](Cc1c[nH]cn1)C(=O)O [glycyl-L-histidine] (H-Gly-His-OH)
3.18	C[C@H](NC(=O)CNC(=O)CN)C(=O)O [glycylglycyl-L-alanine]
2.72	NCC(=O)NCC(=O)N[C@@H](Cc1c[nH]cn1)C(=O)O [glycylglycyl-L-histidine] (H-Gly-Gly-His-OH)
2.90	NCC(=O)NCC(=O)NCC(=O)N[C@@H](Cc1c[nH]cn1)C(=O)O [glycylglycylglycyl-L-histidine] (H-GGGH-OH)

Second part, the molecule before the results:

Compound	acid dissociation constant pKa
O=C(O)c1cccc(C(=O)O)n1 [2,6-pyridinedicarboxylic acid]	2.09
CN(C)CC(=O)O [N,N-dimethylglycine]	2.08
CNCC(=O)O [N-methylglycine]	2.20
C[C@H](N)C(=O)O [alanine]	2.30
Nc1ccc(C(=O)O)cc1 [aminobenzoic acid]	2.02-3.12
N=C(N)NCCC[C@H](N)C(=O)O [arginine]	2.05
O=C(O)CC(O)(CC(=O)O)C(=O)O [citric acid]	2.87
O=C(O)[C@H](O)[C@@H](O)[C@H](O)[C@H](O)CO [gluconic acid]	3.86
O=C(O)CO [glycolic acid]	3.63
C[C@H](NC(=O)CN)C(=O)O [glycyl-L-alanine] (H-Gly-Ala-OH)	3.07
O=CC(=O)O [glyoxylic acid]	3.18
CC(O)C(=O)O (centres unmarked) [lactic acid]	3.66
NCCCC[C@H](N)C(=O)O [lysine]	2.04
O=C(O)CC(O)C(=O)O (centres unmarked) [malic acid]	3.24
CSCC[C@H](N)C(=O)O [methionine]	2.15
CCCC[C@H](N)C(=O)O [norleucine]	2.30
N[C@@H](Cc1ccccc1)C(=O)O [phenylalanine]	2.26
O=[PH](O)O [phosphonic acid]	1.5
CC(=O)C(=O)O [pyruvic acid]	2.26
N[C@@H](CO)C(=O)O [serine]	2.13
O=C(O)CCC(=O)O [succinic acid]	4.00
O=C(O)C(O)C(O)C(=O)O (centres unmarked) [tartaric acid]	2.82-2.99
C[C@@H](O)[C@H](N)C(=O)O [threonine]	2.21
N[C@@H](Cc1c[nH]c2ccccc12)C(=O)O [tryptophan]	2.35
CC(C)[C@H](N)C(=O)O [valine]	2.26
